Test results from ChEMBL document CHEMBL1201862, “PubChem BioAssay data set” (2004).
Activity calls are given as the source filed them.

Experiments:
[1] = molecular target: T1, Aminopeptidase N (Plasmodium falciparum FcB1/Columbia, UniProt O96935); test: P. falciparum M1AAP inhibitors, biochemical, fluorogenic H-Leu-NHMec substrate, 1536-well (AID 1445); parameters: species or system Plasmodium falciparum 3D7, 3D7
T1 sequence (O96935 whole entry): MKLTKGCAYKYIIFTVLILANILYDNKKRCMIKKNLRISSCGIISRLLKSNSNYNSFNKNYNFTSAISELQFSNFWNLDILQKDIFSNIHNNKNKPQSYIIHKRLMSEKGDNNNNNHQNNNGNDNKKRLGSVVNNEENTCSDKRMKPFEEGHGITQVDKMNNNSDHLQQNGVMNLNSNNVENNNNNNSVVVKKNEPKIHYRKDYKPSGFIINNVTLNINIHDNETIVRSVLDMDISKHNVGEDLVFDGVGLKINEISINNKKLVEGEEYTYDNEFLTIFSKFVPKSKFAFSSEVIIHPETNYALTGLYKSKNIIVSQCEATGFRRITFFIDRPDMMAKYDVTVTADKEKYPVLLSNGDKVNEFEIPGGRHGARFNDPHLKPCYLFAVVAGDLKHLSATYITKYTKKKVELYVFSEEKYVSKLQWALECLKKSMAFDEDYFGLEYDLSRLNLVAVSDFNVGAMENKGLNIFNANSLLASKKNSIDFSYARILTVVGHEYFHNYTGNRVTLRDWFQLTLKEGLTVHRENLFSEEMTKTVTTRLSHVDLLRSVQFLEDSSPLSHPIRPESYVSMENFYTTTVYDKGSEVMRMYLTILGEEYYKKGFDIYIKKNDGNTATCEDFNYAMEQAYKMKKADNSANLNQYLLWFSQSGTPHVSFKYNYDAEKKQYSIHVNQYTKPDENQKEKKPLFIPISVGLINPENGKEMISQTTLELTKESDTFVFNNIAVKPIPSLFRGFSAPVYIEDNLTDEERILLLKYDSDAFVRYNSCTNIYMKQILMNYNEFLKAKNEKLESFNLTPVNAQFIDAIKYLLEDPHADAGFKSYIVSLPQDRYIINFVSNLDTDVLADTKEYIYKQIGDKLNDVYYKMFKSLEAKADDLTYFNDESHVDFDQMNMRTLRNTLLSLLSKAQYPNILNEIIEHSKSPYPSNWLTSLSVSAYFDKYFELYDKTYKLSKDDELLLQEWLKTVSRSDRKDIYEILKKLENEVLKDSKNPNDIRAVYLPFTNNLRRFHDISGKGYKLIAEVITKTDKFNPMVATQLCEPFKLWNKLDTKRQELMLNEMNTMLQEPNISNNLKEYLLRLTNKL

[2] = test system: HEK293; test: cells; type: functional, cell-based; conditions: Homo sapiens
[3] = test system: HEK293; test: cells; type: functional, cell-based; conditions: Homo sapiens; remark: listed apart in the source
[4] = test system: HEK293; test: NOD1 signaling inhibitors, primary screen, cell-based, luminescence, uHTS (AID 1578); type: functional; conditions: Homo sapiens
[5] = test system: HEK293; test: cells; type: functional, cell-based; conditions: Homo sapiens; remark: listed apart in the source
[6] = molecular target: Nucleotide-binding oligomerization domain-containing protein 2 (Homo sapiens, UniProt Q9HC29); test: NOD2 signaling inhibitors, cell-based, luminescence, uHTS, HEK293 (AID 1566); type: functional
[7] = test system: HEK293; test: NOD2 signaling inhibitors in MDP-stimulated cells, cell-based, uHTS, luminescence (AID 2001); type: functional; conditions: Homo sapiens
[8] = molecular target: Intestinal-type alkaline phosphatase (Homo sapiens, UniProt P09923); test: Dose Response confirmation of uHTS hits from a small molecule inhibitors of human intestinal alkaline phosphatase via a luminescent assay. [Related pubchem assays (depositor defined):AID2544, AID2574]; type: functional
[9] = molecular target: T2, Bcl-2-like protein 10 (Homo sapiens, UniProt Q9HD36); test: displacers of TR3 peptide from Bcl-B, primary screen, selectivity assay for Bfl-1 inhibitor project, biochemical, fluorescence polarization, FITC-TR3 peptide (AID 748);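 also: fluorescence polarization from a fluorescein-labelled TR3 peptide binding purified Bcl-B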
T2 sequence (Q9HD36 whole entry): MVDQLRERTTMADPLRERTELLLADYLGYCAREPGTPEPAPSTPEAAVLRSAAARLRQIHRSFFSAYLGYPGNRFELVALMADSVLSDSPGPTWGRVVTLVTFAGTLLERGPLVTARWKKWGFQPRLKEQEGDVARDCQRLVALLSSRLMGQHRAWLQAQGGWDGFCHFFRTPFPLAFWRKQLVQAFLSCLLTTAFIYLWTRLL

[10] = THP-1 cell cytotoxicity, dose response, cytotoxicity control for non-replicating M. tuberculosis project (AID 489025); type: functional
[11] = P. falciparum late gametocyte killing, dose response, luminescence (AID 1117278); type: functional, cell-based;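 also: gametocytes exposed to compound for 24 hours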
[12] = Jurkat T cell cytotoxicity, dose response, cytotoxicity control for P. falciparum gametocyte viability project, luminescence (AID 1117277); type: functional, cell-based;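 also: potency reflects loss of cellular ATP meaning fewer viable cells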
[13] = cells; type: functional
[14] = molecular target: T3, Mannose-6-phosphate isomerase (Homo sapiens, UniProt P34949); test: human PMI inhibitors, high substrate, primary screen, biochemical, fluorescence intensity, high mannose 6-phosphate (AID 1220)
T3 sequence (P34949 whole entry): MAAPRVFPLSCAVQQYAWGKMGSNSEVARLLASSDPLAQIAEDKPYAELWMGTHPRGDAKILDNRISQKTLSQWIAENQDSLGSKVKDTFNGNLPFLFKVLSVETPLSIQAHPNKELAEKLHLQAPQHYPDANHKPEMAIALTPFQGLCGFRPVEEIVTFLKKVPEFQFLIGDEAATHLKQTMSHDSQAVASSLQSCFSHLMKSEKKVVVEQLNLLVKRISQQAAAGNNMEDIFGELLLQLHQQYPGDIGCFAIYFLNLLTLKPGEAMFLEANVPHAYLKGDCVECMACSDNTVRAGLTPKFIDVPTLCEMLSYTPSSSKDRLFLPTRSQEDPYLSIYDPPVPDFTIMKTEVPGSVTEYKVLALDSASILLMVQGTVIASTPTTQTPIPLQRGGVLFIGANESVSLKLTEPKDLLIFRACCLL

[15] = molecular target: T4, Apoptotic protease-activating factor 1 (Homo sapiens, UniProt O14727); type: functional
T4 sequence (O14727 whole entry): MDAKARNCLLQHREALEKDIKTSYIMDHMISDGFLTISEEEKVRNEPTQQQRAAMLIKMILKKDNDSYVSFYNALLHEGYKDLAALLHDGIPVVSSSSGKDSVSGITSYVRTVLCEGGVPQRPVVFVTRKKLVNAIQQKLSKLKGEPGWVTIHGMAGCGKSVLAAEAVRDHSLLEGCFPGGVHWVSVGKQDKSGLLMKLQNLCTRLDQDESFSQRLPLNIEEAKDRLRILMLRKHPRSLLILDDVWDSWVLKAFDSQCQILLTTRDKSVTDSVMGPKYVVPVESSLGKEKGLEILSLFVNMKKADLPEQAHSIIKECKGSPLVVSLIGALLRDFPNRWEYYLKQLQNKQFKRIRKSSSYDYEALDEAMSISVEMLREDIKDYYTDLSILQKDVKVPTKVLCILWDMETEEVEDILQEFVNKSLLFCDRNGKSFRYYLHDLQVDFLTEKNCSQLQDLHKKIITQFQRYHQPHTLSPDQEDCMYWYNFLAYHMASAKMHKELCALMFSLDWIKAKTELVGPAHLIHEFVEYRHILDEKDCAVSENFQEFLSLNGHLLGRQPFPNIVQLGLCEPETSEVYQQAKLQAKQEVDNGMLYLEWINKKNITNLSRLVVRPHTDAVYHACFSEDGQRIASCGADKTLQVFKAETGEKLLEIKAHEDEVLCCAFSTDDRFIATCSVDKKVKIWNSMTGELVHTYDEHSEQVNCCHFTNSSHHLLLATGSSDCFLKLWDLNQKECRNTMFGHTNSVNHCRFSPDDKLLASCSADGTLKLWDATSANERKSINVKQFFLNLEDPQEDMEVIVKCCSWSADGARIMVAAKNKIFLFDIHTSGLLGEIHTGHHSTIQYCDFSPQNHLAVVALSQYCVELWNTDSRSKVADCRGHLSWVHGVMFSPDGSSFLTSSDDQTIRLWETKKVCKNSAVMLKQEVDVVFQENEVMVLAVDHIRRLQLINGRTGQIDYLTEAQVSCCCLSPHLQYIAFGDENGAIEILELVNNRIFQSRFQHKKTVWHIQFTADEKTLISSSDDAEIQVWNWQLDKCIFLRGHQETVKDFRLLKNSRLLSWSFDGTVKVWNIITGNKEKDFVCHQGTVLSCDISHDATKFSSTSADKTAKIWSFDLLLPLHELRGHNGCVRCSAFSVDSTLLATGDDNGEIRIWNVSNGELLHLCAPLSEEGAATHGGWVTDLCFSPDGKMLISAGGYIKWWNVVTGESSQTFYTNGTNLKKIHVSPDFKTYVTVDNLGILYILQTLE

[16] = molecular target: T5, Short transient receptor potential channel 4 (Mus musculus, UniProt Q9QUQ5); test: mouse TRPC4 channel activators, dose response, cell-based, HEK293 TRPC4/mu-opioid, Fluo-4 calcium (AID 434937); type: functional
T5 sequence (Q9QUQ5 whole entry): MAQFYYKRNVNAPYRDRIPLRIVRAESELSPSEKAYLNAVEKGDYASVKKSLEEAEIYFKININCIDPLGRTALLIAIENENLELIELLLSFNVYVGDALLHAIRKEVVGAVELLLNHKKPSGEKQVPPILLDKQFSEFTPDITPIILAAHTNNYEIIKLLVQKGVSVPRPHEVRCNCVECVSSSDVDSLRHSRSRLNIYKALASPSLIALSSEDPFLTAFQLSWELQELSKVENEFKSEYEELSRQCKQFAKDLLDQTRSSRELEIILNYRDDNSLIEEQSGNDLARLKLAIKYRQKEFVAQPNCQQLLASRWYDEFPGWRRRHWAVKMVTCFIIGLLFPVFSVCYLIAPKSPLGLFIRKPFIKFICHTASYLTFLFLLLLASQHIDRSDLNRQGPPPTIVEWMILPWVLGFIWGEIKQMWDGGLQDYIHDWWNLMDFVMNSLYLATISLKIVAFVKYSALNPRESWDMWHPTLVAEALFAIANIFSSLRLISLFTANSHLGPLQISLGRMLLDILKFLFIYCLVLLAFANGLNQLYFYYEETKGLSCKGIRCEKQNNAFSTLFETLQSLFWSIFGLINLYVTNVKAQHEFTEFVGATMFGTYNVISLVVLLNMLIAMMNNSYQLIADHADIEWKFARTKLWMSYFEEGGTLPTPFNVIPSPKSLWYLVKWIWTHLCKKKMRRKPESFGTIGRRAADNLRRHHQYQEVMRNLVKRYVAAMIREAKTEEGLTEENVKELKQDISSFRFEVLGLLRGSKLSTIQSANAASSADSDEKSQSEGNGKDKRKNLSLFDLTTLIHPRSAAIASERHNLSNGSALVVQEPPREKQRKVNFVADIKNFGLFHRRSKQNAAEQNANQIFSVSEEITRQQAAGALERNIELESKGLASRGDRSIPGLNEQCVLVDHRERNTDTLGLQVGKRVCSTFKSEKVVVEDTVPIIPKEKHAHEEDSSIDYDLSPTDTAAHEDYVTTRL

[17] = molecular target: Cytochrome P450 2C9 (Homo sapiens, UniProt P11712)
Chain of Cytochrome P450 2C9 (P11712 whole entry): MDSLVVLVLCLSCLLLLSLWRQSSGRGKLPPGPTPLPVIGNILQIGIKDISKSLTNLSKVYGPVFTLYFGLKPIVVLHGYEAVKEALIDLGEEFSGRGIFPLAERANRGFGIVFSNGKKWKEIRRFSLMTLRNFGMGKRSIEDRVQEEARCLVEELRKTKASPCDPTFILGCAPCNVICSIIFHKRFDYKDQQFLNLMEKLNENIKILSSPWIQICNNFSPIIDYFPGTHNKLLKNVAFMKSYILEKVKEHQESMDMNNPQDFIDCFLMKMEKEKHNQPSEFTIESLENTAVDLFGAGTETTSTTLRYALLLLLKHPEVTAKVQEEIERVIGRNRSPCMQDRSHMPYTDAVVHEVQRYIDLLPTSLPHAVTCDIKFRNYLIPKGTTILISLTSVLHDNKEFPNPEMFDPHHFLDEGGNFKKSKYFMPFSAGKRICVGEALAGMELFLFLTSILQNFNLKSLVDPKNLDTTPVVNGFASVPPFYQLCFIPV

Chain of Intestinal-type alkaline phosphatase (P09923 whole entry): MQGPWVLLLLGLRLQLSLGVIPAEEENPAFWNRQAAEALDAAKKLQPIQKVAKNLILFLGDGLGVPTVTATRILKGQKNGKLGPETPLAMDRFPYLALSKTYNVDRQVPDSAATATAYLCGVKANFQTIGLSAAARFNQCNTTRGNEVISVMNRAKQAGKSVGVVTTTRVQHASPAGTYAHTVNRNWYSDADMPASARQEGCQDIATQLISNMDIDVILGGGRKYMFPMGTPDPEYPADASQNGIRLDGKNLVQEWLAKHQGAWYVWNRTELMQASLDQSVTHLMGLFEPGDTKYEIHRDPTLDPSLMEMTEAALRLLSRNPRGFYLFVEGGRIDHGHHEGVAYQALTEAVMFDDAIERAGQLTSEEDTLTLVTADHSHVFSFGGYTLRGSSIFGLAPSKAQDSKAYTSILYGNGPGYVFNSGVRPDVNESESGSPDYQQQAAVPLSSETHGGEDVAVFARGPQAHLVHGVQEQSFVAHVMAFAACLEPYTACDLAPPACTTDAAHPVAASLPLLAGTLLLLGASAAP
Chain of Nucleotide-binding oligomerization domain-containing protein 2 (Q9HC29 whole entry, the tested form may be a part): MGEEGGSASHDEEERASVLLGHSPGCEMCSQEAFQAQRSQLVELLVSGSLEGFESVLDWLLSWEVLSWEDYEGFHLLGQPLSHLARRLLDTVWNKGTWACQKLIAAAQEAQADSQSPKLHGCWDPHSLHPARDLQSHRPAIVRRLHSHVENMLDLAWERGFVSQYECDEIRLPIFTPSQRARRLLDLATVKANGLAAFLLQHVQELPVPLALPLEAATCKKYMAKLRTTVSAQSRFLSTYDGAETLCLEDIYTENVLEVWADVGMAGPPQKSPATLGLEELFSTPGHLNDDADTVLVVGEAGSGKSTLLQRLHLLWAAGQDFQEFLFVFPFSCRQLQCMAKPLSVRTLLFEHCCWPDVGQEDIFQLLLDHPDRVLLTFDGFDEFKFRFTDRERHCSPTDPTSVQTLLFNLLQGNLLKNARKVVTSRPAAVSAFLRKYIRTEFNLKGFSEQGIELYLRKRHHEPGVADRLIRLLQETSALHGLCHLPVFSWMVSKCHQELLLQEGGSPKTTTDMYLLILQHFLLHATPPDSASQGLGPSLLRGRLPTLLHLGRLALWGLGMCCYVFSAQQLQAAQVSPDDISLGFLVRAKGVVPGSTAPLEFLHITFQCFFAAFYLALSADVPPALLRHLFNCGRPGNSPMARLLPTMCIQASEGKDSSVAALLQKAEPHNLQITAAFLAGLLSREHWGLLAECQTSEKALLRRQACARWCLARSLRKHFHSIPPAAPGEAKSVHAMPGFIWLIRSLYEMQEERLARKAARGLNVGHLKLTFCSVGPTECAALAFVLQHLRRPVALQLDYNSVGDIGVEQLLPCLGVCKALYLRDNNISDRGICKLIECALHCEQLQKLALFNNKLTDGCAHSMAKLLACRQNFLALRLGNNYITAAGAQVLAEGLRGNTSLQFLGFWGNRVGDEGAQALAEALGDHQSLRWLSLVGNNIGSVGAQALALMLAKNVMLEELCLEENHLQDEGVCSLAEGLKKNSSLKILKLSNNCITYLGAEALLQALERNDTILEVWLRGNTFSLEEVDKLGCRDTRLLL

With `CC(NC(=O)CN(C)S(=O)(=O)c1c[nH]cn1)c1ccccc1` (configuration not stated) the IC50 [1] was 54.6 µM (active).
In the case of `COc1ccc(C)cc1NC(=O)CSc1ccc(-c2ccco2)nn1`, the IC50 [2] is reported as > 20 µM (inactive), the IC50 [3] is reported as > 20 µM (inactive) and the EC50 [4] is reported as > 20 µM (inactive). The IC50 [5] was > 20 µM (inactive), the EC50 [6] was > 20 µM (inactive) and the IC50 [7] was 9.49 µM (inactive).
With `CCn1cnc2sc(C(=O)O)c(C)c2c1=O` the IC50 [8] was > 100 µM (inactive).
With `O=C(COC(=O)c1ccc(S(=O)(=O)NCc2ccco2)cc1)NCC1CCCCC1` the IC50 [9] was > 100 µM (inactive).
For `O=C(Cc1c(F)cccc1Cl)Nc1ncc([N+](=O)[O-])s1`, the CC50 [10] was > 40 µM (active), the IC50 [11] was > 109 µM (inactive) and the IC50 [12] was > 83.3 µM (inactive).
For `O=C(CCN1CCOCC1)c1ccc(Br)cc1`, the CC50 [10] was > 40 µM (active), the IC50 [13] was 11.8 µM (active) and the IC50 [14] was 43 µM (active).
With `c1cc2c3c(cccc3c1)NC1(CCCCCC1)N2` the IC50 [15] was 6.58 µM (active) and the IC50 [9] was 78.4 µM (inactive).
In the case of `O=C(CNC(=O)c1ccncc1)N/N=C/c1cc(Br)ccc1O`, the IC50 [1] is reported as 24.5 µM (active).
With `O=C(O)c1ccc(-c2ccc(/C=N/Nc3ccc([N+](=O)[O-])cc3)o2)cc1` the EC50 [16] was 2.11 µM (active) and the IC50 [1] was 43.1 µM (active).
With `CCOC(=O)c1c(NC(=O)Cn2cc([N+](=O)[O-])cn2)sc2c1CCC2` the AC50 [17] was 3.55 µM (inconclusive) and the IC50 [8] was > 100 µM (inactive).
